{"source": "patent US20220062218A1", "about": "“COMPOSITIONS AND METHODS FOR TREATING DIABETES” (ENZYCHEM LIFESCIENCES, priority 2019, published 2022)", "key": {"INS-1 cells [1]": {"test_system": "INS-1 cells", "test": "Intracellular ROS generation in STZ-treated cells, flow cytometry with DCFH-DA and immunofluorescence", "type": "cell-based, rat", "protocol": "For intracellular ROS analyses after administering PLAG, cells were incubated with 2 μM of DCFH-DA (2′,7′-dichlorodihydrofluorescein diacetate, Invitrogen, Carlsbad, CA, USA) for 30 min at 37 ° C. The analysis was performed using a BD FACS Verse flow cytometer (BD Biosciences) (FIGS. 4A and 4B), and expression of reactive oxygen species (ROS) was observed by immunofluorescence assay (FIG. 4C). We further examined cell apoptosis in cells co-treated with three types of ROS inhibitor (Apocynin, MitoTEMPO, NAC) to examine the association of intracellular ROS generation with pancreatic beta cell apoptosis. […] Apocynin (NADPH oxidase inhibitor), MitoTEMPO (mitochondrial ROS inhibitor), and N-acetyl-L-cysteine (NAC, an overall ROS inhibitor) were used as the ROS inhibitor. Data are presented as mean ±SD(* P<0.05, ** P<0.005, *** P <0.001 vs control, #P<0.05, ## P<0.005 vs STZ).\n(§1) After treatment with PLAG and PLH(1-palmitoyl-2-linoleoyl-3-hydroxyl-rac-glycerol), apoptosis, intracellular ROS generation and glucose uptake were analyzed by flow cytometry (FIG. 7-B to 7-E). In addition, expression of GLUT2 in membrane fractions was analyzed by Western blotting (FIG.7-F). Data are presented as mean ±SD. ***P<0.001 vs. control, #P<0.05, ##P<0.005 vs. STZ. N.S.: No significance.\nCells were collected by trypsinization and washed with ice-cold PBS. For cell apoptosis analyses, INS-1 cells were incubated with annexin V (BD Biosciences, Franklin Lakes, N.J., USA) for 10 min at room temperature, and stained with 7-AAD (BD Biosciences). For intracellular reactive oxygen species (ROS) analyses, cells were incubated with 2 μM of DCFH-DA (2′,7′-dichlorodihydrofluorescein diacetate, Invitrogen, Carlsbad, Calif., USA) for 30 min at 37° C. The analysis was performed using a BD FACS Verse flow cytometer (BD Biosciences)."}, "INS-1 cells [2]": {"test_system": "INS-1 cells", "test": "Glucose uptake assay with 2-NBDG in INS-1 cells (flow cytometry, immunofluorescence)", "type": "cell-based, rat", "protocol": "2-[N-(7-nitrobenz-2-oxa-1,3-diazol-4-yl)amino]-2-deoxy-D-glucose (2-NBDG, N13195, Thermo Scientific) was used for glucose uptake assays. Glucose uptake assays were performed using 2-NBDG conjugated with fluorescent dye. Intracellular 2-NBDG was measured at 60 min (FIG. 5A) and successively calculated from 5 min to 480 min after 2-NBDG treatment by How cytometry (FIG. 5B). Serum-containing complete medium was removed, and INS-1 cells were washed in PBS. The cells were cultured in glucose-free culture media for 1 h at 37° C. and then treated with 2-NBDG. Intracellular fluorescence was measured using a BD FACS Verse flow cytometer (BD Biosciences).\nIntracellular 2-NBDG expression were also observed using immunofluorescence assay (FIG.5-C). Data are presented as mean ±SD. *P<0.05, **P<0.005, ***P<0.001 vs. control, #P<0.05, ##P<0.005 vs. STZ.\nas §1"}}}
{"smiles": "CCCCC/C=C\\C/C=C\\CCCCCCCC(=O)OC(COC(C)=O)COC(=O)CCCCCCCCCCCCCCC", "note": "(racemic) [PLAG, 1-palmitoyl-2-linoleoyl-3-acetyl-rac-glycerol]", "values": [{"measurement": "decrease of ROS generation, PLAG vs PLH", "setting": "INS-1 cells [1]; Example 8", "result": "more effective than PLH"}, {"measurement": "intracellular ROS (dose dependence)", "setting": "INS-1 cells [1]; flow cytometry", "result": "dose-dependently decreased"}, {"measurement": "intracellular ROS (time course)", "setting": "INS-1 cells [1]; flow cytometry and immunofluorescence", "result": "attenuated"}, {"measurement": "glucose uptake (2-NBDG time course)", "setting": "INS-1 cells [2]; 5 min to 480 min after 2-NBDG treatment, flow cytometry, vs 2-NBDG alone", "result": "glucose uptake was attenuated"}, {"measurement": "glucose uptake (2-NBDG), PLAG vs PLH", "setting": "INS-1 cells [2]; Example 8, flow cytometry", "result": "2-NBDG was slowly absorbed"}, {"measurement": "intracellular 2-NBDG fluorescence intensity", "setting": "INS-1 cells [2]; at 60 min, flow cytometry", "result": "lower fluorescence intensity"}, {"measurement": "intracellular 2-NBDG (immunofluorescence)", "setting": "INS-1 cells [2]; time course vs 2-NBDG-only treated group", "result": "increased more slowly"}]}
